What is called EC50 is the midpoint of the concentration-response curve. Lower therefore signals an effect from little substance.

Experiment [1] concerns Human alphaherpesvirus 1. Nature of the experiment: Antiviral activity against HSV-1 determined by inhibition of viral cytopathic effect (CPE) in rhabdomyosarcoma (RD) cell line. The format is functional, organism-based, herpes simplex virus. The note with it: Human alphaherpesvirus 1, RD. Background: Damage to the host cells serves as the signal in cytopathic effect assays.

The test system of experiment [2] is Influenza A virus. Nature of the experiment: Antiviral activity against influenza A virus determined in chicken embryo cells (CEC) by plaque reduction assay method. The format is functional, organism-based. A general note: Plaques are areas of infected cells; plaque reduction assays count them against a control.
The subject of experiment [3] is Human alphaherpesvirus 1. Nature of the experiment: Ratio of maximum nontoxic concentration (MNTC) against HSV-1 to that of effective concentration (EC50). The format is functional, herpes simplex virus.
In experiment [4] the test system is Influenza A virus. Description: Ratio of maximum nontoxic concentration (MNTC) against Influenza virus A to that of effective concentration (EC50). The format is functional.

For `C=C(C)[C@@H]1CCC2(NC(=O)N[C@@H](C(=O)OC)C(C)C)CC[C@@]3(C)C(CC[C@@H]4[C@@]5(C)CCC(=O)C(C)(C)C5CC[C@]43C)C12` (some centres not stated), the EC50 in the experiment on Human alphaherpesvirus 1 [1] was 0.2 µM; in the experiment with Influenza A virus [2], above 85.7 µM. Besides, the Ratio in the experiment on Human alphaherpesvirus 1 [3] is on record as 454; in the experiment with Influenza A virus [4] it was below 1.
On to `C=C(C)[C@@H]1CC[C@]2(C(=O)NN)CC[C@@]3(C)C(CC[C@@H]4[C@@]5(C)CCC(=O)C(C)(C)C5CC[C@]43C)C12` (some centres not stated), for which the EC50 in the experiment with Human alphaherpesvirus 1 [1] was 10 µM. Also, the Ratio in the experiment with Human alphaherpesvirus 1 [3] amounted to 21.3.
In the case of `C=C(C)[C@@H]1CC[C@]2(C(=O)NN)CC[C@@]3(C)C(CC[C@@H]4[C@@]5(C)CC/C(=N\O)C(C)(C)C5CC[C@]43C)C12` (some centres not stated), the 50% effective concentration (EC50) in the experiment on Human alphaherpesvirus 1 [1] was above 51.6 µM; with Influenza A virus [2] it was 2 µM. Also, the Ratio is below 1 in the experiment on Human alphaherpesvirus 1 [3] and 25.2 in the experiment on Influenza A virus [4].
For the compound `C=C(C)[C@@H]1CC[C@]2(C(=O)N[C@@H](CCSC)C(=O)OC)CC[C@@]3(C)C(CC[C@@H]4[C@@]5(C)CCC(=O)C(C)(C)C5CC[C@]43C)C12` (some centres not stated), the EC50 was above 666 µM with Human alphaherpesvirus 1 [1] and 14.2 µM with Influenza A virus [2]. Besides, the Ratio is below 1 in the experiment on Human alphaherpesvirus 1 [3] and 11.9 in the experiment with Influenza A virus [4].
With `C=C(C)[C@@H]1CC[C@]2(C(=O)N[C@@H](C)C(=O)OC)CC[C@@]3(C)C(CC[C@@H]4[C@@]5(C)CCC(=O)C(C)(C)C5CC[C@]43C)C12` (some centres not stated), the EC50 in the experiment on Human alphaherpesvirus 1 [1] was 663 µM; in the experiment on Influenza A virus [2], above 234 µM. Besides, the Ratio in the experiment with Human alphaherpesvirus 1 [3] is listed as 1.4; with Influenza A virus [4], below 1.
The like results for `C=C(C)[C@@H]1CC[C@]2(C(=O)NCCO)CC[C@@]3(C)C(CC[C@@H]4[C@@]5(C)CCC(=O)C(C)(C)C5CC[C@]43C)C12` (some centres not stated) were, in that order, above 377 µM, above 755 µM, below 1 and below 1.
In the case of `C=C(C)[C@@H]1CC[C@]2(N=C=O)CC[C@@]3(C)C(CC[C@@H]4[C@@]5(C)CCC(=O)C(C)(C)C5CC[C@]43C)C12` (some centres not stated), the half-maximal effective concentration (EC50) with Human alphaherpesvirus 1 [1] and in the experiment with Influenza A virus [2] was above 221 µM throughout. For the same compound, the Ratio in the experiment on Human alphaherpesvirus 1 [3] and with Influenza A virus [4] was below 1 in each case.
In the case of `C=C(C)[C@@H]1CCC2(NC(=O)N[C@H](CC(C)C)C(=O)OC)CC[C@@]3(C)C(CC[C@@H]4[C@@]5(C)CCC(=O)C(C)(C)C5CC[C@]43C)C12` (some centres not stated), the concentration giving a half-maximal response (EC50) in the experiment on Human alphaherpesvirus 1 [1] is 14.6 µM; with Influenza A virus [2], 5 µM. The Ratio with Human alphaherpesvirus 1 [3] is listed as 11.5; in the experiment on Influenza A virus [4], above 67.
Turning to `C=C(C)[C@@H]1CCC2(NC(=O)N[C@H](CCSC)C(=O)OC)CC[C@@]3(C)C(CC[C@@H]4[C@@]5(C)CC/C(=N\O)C(C)(C)C5CC[C@]43C)C12` (some centres not stated), the half-maximal effective concentration (EC50) was 0.6 µM in the experiment with Human alphaherpesvirus 1 [1] and 2.3 µM in the experiment on Influenza A virus [2]. Moreover, the Ratio in the experiment on Human alphaherpesvirus 1 [3] was 67.6; with Influenza A virus [4] it was 35.2.
Consider `C=C(C)[C@@H]1CC[C@]2(C(=O)NCCCCCCCCCCCCCCCCCC)CC[C@@]3(C)C(CC[C@@H]4[C@@]5(C)CCC(=O)C(C)(C)C5CC[C@]43C)C12` (some centres not stated), for which the EC50 with Human alphaherpesvirus 1 [1] is 1.4 µM; with Influenza A virus [2], 55.5 µM. Further, the figures for the Ratio in the experiment on Human alphaherpesvirus 1 [3] and in the experiment on Influenza A virus [4] were 177 and 4.6, respectively.
As to `C=C(C)[C@@H]1CC[C@]2(C(=O)N[C@@H](CC(C)C)C(=O)OC)CC[C@@]3(C)C(CC[C@@H]4[C@@]5(C)CCC(=O)C(C)(C)C5CC[C@]43C)C12` (some centres not stated), the figures for the concentration giving a half-maximal response (EC50) with Human alphaherpesvirus 1 [1] and in the experiment with Influenza A virus [2] were 1370 µM and 72.3 µM, respectively. The Ratio was below 1 in the experiment with Human alphaherpesvirus 1 [3] and 1.2 in the experiment on Influenza A virus [4].
The like results for `C=C(C)[C@@H]1CC[C@]2(C(=O)N[C@H](C(=O)OC)C(C)C)CC[C@@]3(C)C(CC[C@@H]4[C@@]5(C)CCC(=O)C(C)(C)C5CC[C@]43C)C12` (some centres not stated) were, in that order, 142 µM, 13.3 µM, 2.5 and 3.4.
The like results for `C=C(C)[C@@H]1CCC2(NC(=O)N[C@H](CCSC)C(=O)OC)CC[C@@]3(C)C(CC[C@@H]4[C@@]5(C)CCC(=O)C(C)(C)C5CC[C@]43C)C12` (some centres not stated) were, in that order, 2.2 µM, 27.1 µM, 298.5 and 3.
`C=C(C)[C@@H]1CC[C@]2(C(N)=O)CC[C@@]3(C)C(CC[C@@H]4[C@@]5(C)CCC(=O)C(C)(C)C5CC[C@]43C)C12` (some centres not stated): the values for the EC50 with Human alphaherpesvirus 1 [1] and in the experiment with Influenza A virus [2] were 220 µM and 0.7 µM, respectively. Further, the results for the Ratio with Human alphaherpesvirus 1 [3] and in the experiment on Influenza A virus [4] were below 1 and 1333.3, respectively.
For `C=C(C)[C@@H]1CC[C@]2(C(=O)O)CC[C@]3(C)[C@H](CC[C@@H]4[C@@]5(C)CC[C@H](O)C(C)(C)[C@@H]5CC[C@]43C)[C@@H]12` [BETULINIC ACID], the values for the EC50 in the experiment on Human alphaherpesvirus 1 [1] and in the experiment on Influenza A virus [2] were 8.2 µM and above 219 µM, respectively. The Ratio in the experiment with Human alphaherpesvirus 1 [3] is given as 53.3; in the experiment on Influenza A virus [4], below 1.
Consider `C=C(C)[C@@H]1CC[C@]2(C(=O)O)CC[C@]3(C)[C@H](CC[C@@H]4[C@@]5(C)CCC(=O)C(C)(C)[C@@H]5CC[C@]43C)[C@@H]12` [BETUNOLIC ACID], for which the EC50 in the experiment on Human alphaherpesvirus 1 [1] was determined as 2.5 µM; with Influenza A virus [2], 5.7 µM. Moreover, the results for the Ratio with Human alphaherpesvirus 1 [3] and in the experiment on Influenza A virus [4] were 43.9 and 9.6, respectively.

Source of the values: ChEMBL document CHEMBL1144980, “Lupane triterpenes and derivatives with antiviral activity” (Bioorg Med Chem Lett, 2003).
